Where two headings read alike, the source gives them in different places.
Tests used:
[1] = Plasma pharmacokinetics of barasertib, barasertib-hQPA and LDAC; conditions: for Steady-state plasma concentrations observed from, after start of infusion: 7-day continuous iv infusion of barasertib, Day 1, maintained until EOI; for AUC0–EOI, barasertib-hQPA / AUC0–t, barasertib-hQPA / Css, barasertib-hQPA / Css, barasertib: geometric mean (CV%)
[2] = tested on: elderly patients with newly diagnosed AML
[3] = tested on: elderly patients with newly diagnosed AML; assay: Phase I dose escalation: dose-limiting toxicities and maximum tolerated dose; type: in vivo, human
[4] = tested on: elderly patients with newly diagnosed AML; assay: AML response assessed by investigators; type: in vivo, human
[5] = tested on: patients with AML; conditions: cited from earlier work
[6] = plasma, barasertib 800 mg + LDAC 400 mg, n=6
[7] = plasma, barasertib 1000 mg + LDAC 400 mg, n=13
[8] = plasma, barasertib 1200 mg + LDAC 400 mg, n=3
[9] = Total, barasertib 800-1200 mg + LDAC 400 mg, n=22
[10] = all patients, barasertib + LDAC, n=22
[11] = barasertib 800 mg + LDAC 400 mg, n=6
[12] = barasertib 1000 mg + LDAC 400 mg, n=13
[13] = barasertib 1200 mg + LDAC 400 mg, n=3
[14] = combination treatment barasertib + LDAC
[15] = overall, barasertib + LDAC, n=22

CCN(CCO)CCCOc1ccc2c(Nc3cc(CC(=O)Nc4cccc(F)c4)[nH]n3)ncnc2c1 [Barasertib-hQPA, barasertib hydroxy-QPA]
Steady-state plasma concentrations observed from, after start of infusion [1]: 24 h
Accumulation ([1]; 28-day cycles): Minimal accumulation
Barasertib-hQPA exposure (AUC and Css) versus barasertib dose ([1]; 800-1200 mg, trend, low patient numbers): increase more than proportionally
Clearance rate, geometric mean ([1]; barasertib 1000 mg cohort, range 23.4–43.3): 30.5 L/h
Volume of distribution at steady state, geometric mean ([1]; barasertib 1000 mg cohort, range 509–1050): 713 L
Exposure to barasertib-hQPA during the infusion relative to that of barasertib ([1]; during 7-day infusion): approximately four-fold
Terminal phase t½ ([1]; following EOI, biphasic elimination): 3.5 to 4.5 days
Detected in samples post EOI up to and including ([1]; plasma, LLOQ 0.25 ng/mL): ≤ 336 h
AUC0–EOI, barasertib-hQPA [1, 6]: 23240 (14.9) ng.h/mL
AUC0–t, barasertib-hQPA [1, 6]: 24040 (3.4) ng.h/mL
Css, barasertib-hQPA [1, 6]: 147.3 (13.9) ng/mL
AUC0–EOI, barasertib-hQPA [1, 7]: 26860 (29.8) ng.h/mL
AUC0–t, barasertib-hQPA [1, 7]: 32840 (23.1) ng.h/mL
Css, barasertib-hQPA [1, 7]: 170.2 (27.4) ng/mL
AUC0–EOI, barasertib-hQPA [1, 8]: 37510 (26.6) ng.h/mL
AUC0–t, barasertib-hQPA [1, 8]: 41850 (28.2) ng.h/mL
Css, barasertib-hQPA [1, 8]: 249.2 (21.0) ng/mL

CCN(CCCOc1ccc2c(Nc3cc(CC(=O)Nc4cccc(F)c4)n[nH]3)ncnc2c1)CCOP(=O)(O)O [Barasertib]
Grade ≥3 febrile neutropenia, patients ([2]; MTD of barasertib 1000 mg + LDAC): 69%
Alopecia, AE (any cause; all grades) [2, 9]: 6 (27) n (%)
Anemia, grade ≥3 adverse event [2, 9]: 2 (9) n (%)
Any AE (any cause; all grades) [2, 9]: 22 (100) n (%)
Any grade ≥3 AE [2, 9]: 21 (96) n (%)
Confusional state, AE (any cause; all grades) [2, 9]: 5 (23) n (%)
Constipation, AE (any cause; all grades) [2, 9]: 6 (27) n (%)
Cough, AE (any cause; all grades) [2, 9]: 4 (18) n (%)
Decreased appetite, AE (any cause; all grades) [2, 9]: 4 (18) n (%)
Diarrhea, AE (any cause; all grades) [2, 9]: 10 (46) n (%)
Diarrhea, grade ≥3 adverse event [2, 9]: 2 (9) n (%)
Febrile neutropenia, AE (any cause; all grades) [2, 9]: 13 (59) n (%)
Febrile neutropenia, grade ≥3 adverse event [2, 9]: 13 (59) n (%)
Headache, AE (any cause; all grades) [2, 9]: 5 (23) n (%)
Hemorrhoids, AE (any cause; all grades) [2, 9]: 4 (18) n (%)
Hypertension, AE (any cause; all grades) [2, 9]: 4 (18) n (%)
Insomnia, AE (any cause; all grades) [2, 9]: 4 (18) n (%)
Musculoskeletal pain, AE (any cause; all grades) [2, 9]: 4 (18) n (%)
Nausea, AE (any cause; all grades) [2, 9]: 11 (50) n (%)
Neutropenia, AE (any cause; all grades) [2, 9]: 4 (18) n (%)
Neutropenia, grade ≥3 adverse event [2, 9]: 4 (18) n (%)
Oropharyngeal pain, AE (any cause; all grades) [2, 9]: 5 (23) n (%)
Peripheral edema, AE (any cause; all grades) [2, 9]: 9 (41) n (%)
Petechiae, AE (any cause; all grades) [2, 9]: 6 (27) n (%)
Pneumonia, AE (any cause; all grades) [2, 9]: 6 (27) n (%)
Pneumonia, grade ≥3 adverse event [2, 9]: 3 (14) n (%)
Pyrexia, AE (any cause; all grades) [2, 9]: 5 (23) n (%)
Rash, AE (any cause; all grades) [2, 9]: 4 (18) n (%)
Stomatitis, AE (any cause; all grades) [2, 9]: 9 (41) n (%)
Peripheral edema, patients [2, 10]: 41%
Stomatitis, patients [2, 10]: 41%
Alopecia, AE (any cause; all grades) [2, 11]: 2 n
Anemia, grade ≥3 adverse event [2, 11]: 2 n
Any AE (any cause; all grades) [2, 11]: 6 n
Any grade ≥3 AE [2, 11]: 6 n
Confusional state, AE (any cause; all grades) [2, 11]: 2 n
Constipation, AE (any cause; all grades) [2, 11]: 3 n
Cough, AE (any cause; all grades) [2, 11]: 1 n
Decreased appetite, AE (any cause; all grades) [2, 11]: 2 n
Diarrhea, AE (any cause; all grades) [2, 11]: 5 n
Diarrhea, grade ≥3 adverse event [2, 11]: 1 n
Febrile neutropenia, AE (any cause; all grades) [2, 11]: 4 n
Febrile neutropenia, grade ≥3 adverse event [2, 11]: 4 n
Headache, AE (any cause; all grades) [2, 11]: 3 n
Hemorrhoids, AE (any cause; all grades) [2, 11]: 1 n
Hypertension, AE (any cause; all grades) [2, 11]: 0 n
Insomnia, AE (any cause; all grades) [2, 11]: 0 n
Musculoskeletal pain, AE (any cause; all grades) [2, 11]: 2 n
Nausea, AE (any cause; all grades) [2, 11]: 4 n
Neutropenia, AE (any cause; all grades) [2, 11]: 1 n
Neutropenia, grade ≥3 adverse event [2, 11]: 1 n
Oropharyngeal pain, AE (any cause; all grades) [2, 11]: 1 n
Peripheral edema, AE (any cause; all grades) [2, 11]: 2 n
Petechiae, AE (any cause; all grades) [2, 11]: 3 n
Pneumonia, AE (any cause; all grades) [2, 11]: 3 n
Pneumonia, grade ≥3 adverse event [2, 11]: 0 n
Pyrexia, AE (any cause; all grades) [2, 11]: 3 n
Rash, AE (any cause; all grades) [2, 11]: 2 n
Stomatitis, AE (any cause; all grades) [2, 11]: 3 n
Stomatitis, grade ≥3 adverse event [2, 11]: 0 n
Thrombocytopenia, grade ≥3 adverse event (grade 4) [2, 11]: 1 n
Vomiting, AE (any cause; all grades) [2, 11]: 3 n
Alopecia, AE (any cause; all grades) [2, 12]: 4 n
Anemia, grade ≥3 adverse event [2, 12]: 0 n
Any AE (any cause; all grades) [2, 12]: 13 n
Any grade ≥3 AE [2, 12]: 12 n
Confusional state, AE (any cause; all grades) [2, 12]: 3 n
Constipation, AE (any cause; all grades) [2, 12]: 3 n
Cough, AE (any cause; all grades) [2, 12]: 3 n
Decreased appetite, AE (any cause; all grades) [2, 12]: 1 n
Diarrhea, AE (any cause; all grades) [2, 12]: 5 n
Diarrhea, grade ≥3 adverse event [2, 12]: 1 n
Febrile neutropenia, AE (any cause; all grades) [2, 12]: 9 n
Febrile neutropenia, grade ≥3 adverse event [2, 12]: 9 n
Headache, AE (any cause; all grades) [2, 12]: 2 n
Hemorrhoids, AE (any cause; all grades) [2, 12]: 3 n
Hypertension, AE (any cause; all grades) [2, 12]: 3 n
Insomnia, AE (any cause; all grades) [2, 12]: 3 n
Musculoskeletal pain, AE (any cause; all grades) [2, 12]: 2 n
Nausea, AE (any cause; all grades) [2, 12]: 6 n
Neutropenia, AE (any cause; all grades) [2, 12]: 2 n
Neutropenia, grade ≥3 adverse event [2, 12]: 2 n
Oropharyngeal pain, AE (any cause; all grades) [2, 12]: 4 n
Peripheral edema, AE (any cause; all grades) [2, 12]: 7 n
Petechiae, AE (any cause; all grades) [2, 12]: 2 n
Pneumonia, AE (any cause; all grades) [2, 12]: 3 n
Pneumonia, grade ≥3 adverse event [2, 12]: 3 n
Pyrexia, AE (any cause; all grades) [2, 12]: 2 n
Rash, AE (any cause; all grades) [2, 12]: 2 n
Stomatitis, AE (any cause; all grades) [2, 12]: 4 n
Stomatitis, grade ≥3 adverse event [2, 12]: 2 n
Thrombocytopenia, grade ≥3 adverse event (grade 4) [2, 12]: 1 n
Vomiting, AE (any cause; all grades) [2, 12]: 2 n
Alopecia, AE (any cause; all grades) [2, 13]: 0 n
Anemia, grade ≥3 adverse event [2, 13]: 0 n
Any AE (any cause; all grades) [2, 13]: 3 n
Any grade ≥3 AE [2, 13]: 3 n
Confusional state, AE (any cause; all grades) [2, 13]: 0 n
Constipation, AE (any cause; all grades) [2, 13]: 0 n
Cough, AE (any cause; all grades) [2, 13]: 0 n
Decreased appetite, AE (any cause; all grades) [2, 13]: 1 n
Diarrhea, AE (any cause; all grades) [2, 13]: 0 n
Diarrhea, grade ≥3 adverse event [2, 13]: 0 n
Febrile neutropenia, AE (any cause; all grades) [2, 13]: 0 n
Febrile neutropenia, grade ≥3 adverse event [2, 13]: 0 n
Headache, AE (any cause; all grades) [2, 13]: 0 n
Hemorrhoids, AE (any cause; all grades) [2, 13]: 0 n
Hypertension, AE (any cause; all grades) [2, 13]: 1 n
Insomnia, AE (any cause; all grades) [2, 13]: 1 n
Musculoskeletal pain, AE (any cause; all grades) [2, 13]: 0 n
Nausea, AE (any cause; all grades) [2, 13]: 1 n
Neutropenia, AE (any cause; all grades) [2, 13]: 1 n
Neutropenia, grade ≥3 adverse event [2, 13]: 1 n
Oropharyngeal pain, AE (any cause; all grades) [2, 13]: 0 n
Peripheral edema, AE (any cause; all grades) [2, 13]: 0 n
Petechiae, AE (any cause; all grades) [2, 13]: 1 n
Pneumonia, AE (any cause; all grades) [2, 13]: 0 n
Pneumonia, grade ≥3 adverse event [2, 13]: 0 n
Pyrexia, AE (any cause; all grades) [2, 13]: 0 n
Rash, AE (any cause; all grades) [2, 13]: 0 n
Stomatitis, AE (any cause; all grades) [2, 13]: 2 n
Stomatitis, grade ≥3 adverse event [2, 13]: 2 n
Thrombocytopenia, grade ≥3 adverse event (grade 4) [2, 13]: 0 n
Vomiting, AE (any cause; all grades) [2, 13]: 1 n
ECG assessment [2, 14]: no clinically significant changes
Vital signs, hematology, or clinical chemistry parameters [2, 14]: no clinically relevant adverse changes
Dose interruptions due to AEs [2, 15]: Three
Grade ≥3 febrile neutropenia, patients [2, 15]: 59%
SAE febrile neutropenia [2, 15]: 36%
SAE stomatitis [2, 15]: 9%
SAEs considered related to study treatment [2, 15]: Five
Serious AEs (SAEs), patients [2, 15]: 68%
Tolerability of dose level ([3]; barasertib 1200 mg + LDAC): non-tolerated
DLTs reported ([3]; in vivo): No DLTs
Overall response rate (International Working Group criteria; by investigator opinion) ([4]; all patients, barasertib + LDAC, n=10/22): 45%
Complete response with incomplete recovery of neutrophils and/or platelets, patients [4, 10]: 9%
Partial response, patients [4, 10]: 9%
Best clinical response: CR (complete response) [4, 11]: 2 n
Best clinical response: CRi (complete response with incomplete recovery of neutrophils and/or platelets) [4, 11]: 0 n
Best clinical response: ORR (overall response rate) [4, 11]: 3 (50) n (%)
Best clinical response: PR (partial response) [4, 11]: 1 n
Best clinical response: CR (complete response) [4, 12]: 3 n
Best clinical response: CRi (complete response with incomplete recovery of neutrophils and/or platelets) [4, 12]: 2 n
Best clinical response: ORR (overall response rate) [4, 12]: 6 (46) n (%)
Best clinical response: PR (partial response) [4, 12]: 1 n
Response rate ([4]; barasertib 1000 mg cohort + LDAC, 6/13 patients): 46%
Best clinical response: CR (complete response) [4, 13]: 1 n
Best clinical response: CRi (complete response with incomplete recovery of neutrophils and/or platelets) [4, 13]: 0 n
Best clinical response: ORR (overall response rate) [4, 13]: 1 (33) n (%)
Best clinical response: PR (partial response) [4, 13]: 0 n
Complete response, patients with adverse cytogenetic risk ([4]; barasertib + LDAC, n=7): 14%
Complete responses (CR or CRi), patients with intermediate risk cytogenetics ([4]; barasertib + LDAC, n=9): 44%
Steady-state plasma concentrations observed from, after start of infusion [1]: 24 h
Time following EOI at which levels were generally undetectable ([1]; plasma, LLOQ 0.25 ng/mL): 2 h
Css, barasertib [1, 6]: 46.7 (55.8) ng/mL
Css, barasertib [1, 7]: 44.4 (55.5) ng/mL
Css, barasertib [1, 8]: 64.9 (67.4) ng/mL
Incidence of febrile neutropenia ([5]; barasertib monotherapy Phase I study): 47%
Lowest dose associated with clinical activity ([5]; barasertib): 400 mg
